Data taken from patent publication US6379670B1, “Methods for treatment of multiple sclerosis using peptide analogs of human myelin basic protein” (Neurocrine Biosciences, Inc., priority 1994, dated 2002).
Non-standard residues stand in square brackets, D forms with d. No end group written: not given here.

Experiments:
EAE in Lewis rats = experiment: Treatment of MBP(83-99)-induced EAE in Lewis rats with peptide analogs (subcutaneous); format: in vivo, Lewis rat
Method: In this system, experimental allergic encephalomyelitis (EAE) was induced in twelve female Lewis rats by injection of MBP(83-99) peptide in complete Freund's adjuvant (CFA) at the base of the tail. Nine days later, rats were divided into two groups of six animals and subcutaneously injected with 13.2 mg/kg of either peptide analog or a control peptide, sperm whale myoglobin (SWM) (110-121). Animals were monitored daily for disease symptoms and scored in a blinded fashion on a nonlinear ascending scale of 0-4 with increments denoting increasing paralysis. Each individual score was averaged with group cohorts to obtain the mean clinical score.

[1] = system: Dr2b restricted human T cell clones reactive to MBP; experiment: Human T cell proliferation, Dr2b restricted clones; format: cell-based
Method: Human T cells reactive to MBP (83-99) may alternatively be used to measure the ability of the peptide analog to inhibit proliferation of T cells induced by native MBP (83-99) peptide. MBP-specific T cells may be obtained as previously described by Martin et al., J. Immunol. 148:1359-1366, 1992. Briefly, T cell lines are established by culture of human T cells with irradiated, DR-matched peripheral blood cells in MEM supplemented with 2 mM L-glutamine, 50 μg/ml gentamicin, penicillin and streptomycin, 100 U/ml rIL-2, and 10% human AB negative serum. Proliferation of these T cell lines is stimulated by culturing a clone with varying concentration (1.1-30 μM) of native […] peptide, 50 μM of the peptide analog or SWM peptide, in the presence of irradiated, DR matched peripheral blood cells, following incubation for approximately 60 hours, the cells are pulsed with ^3H-thymidine for 12 hours and harvested. The amount of incorporated ^3H-thymidine is measured.
The ability of the peptide analogs NBI-5719, 5748, 5765, 5788 and 5789 (SEQ ID NOs: 4-8 respectively) to affect human T cell proliferation was assessed. A constant amount of peptide analog or the control peptide SWM (50 μM) was cultured with varying concentrations of native MBP(83-99) peptide (1.1-30 μM) in the presence of irradiated, DR matched peripheral blood cells and T cell clones derived from various MS patients. Human T cells (1×10^6) were cultured with DR matched, irradiated peripheral blood cells (PBL, 5×10^6) in medium containing IMDM supplemented with 3 μM MBP83-99, 2 mM L-glutamine, 50 μg/ml gentamicin penicillin/streptomycin, 100 U/ml r1L-2 and 10% human AB-negative serum. Cells were cultured for approximately 60 hours, pulsed with tritiated thymidine for 12 hours, and harvested. The amount of tritiated thymidine incorporated was measured, and the data represented as the mean plus or minus the standard error of the mean of replicate samples.
The ability of the peptide analog to inhibit the proliferative response of MBP-reactive T cells isolated from Dr2b (DrB1* 1501) individuals was determined. A constant amount of NBI-5788 (50 μM) was cultured with varying concentrations of native peptide (1.1-30 μM) in the presence of irradiated, DR matched peripheral blood cells and T cell clones derived from various MS patients.

[2] = system: Dr2b-restricted T cell clone 5F6; experiment: Cytokine production (TNF-α, IFN-γ) by T cell clone 5F6, EIA; format: cell-based, human
Method: As discussed in detail below, the production of cytokines may also be assessed. In particular, TNF-α and IFN-γ production are especially interesting. These pro-inflammatory cytokines are thought to play a role in the pathogenesis of the disease. Briefly, T cell clone is incubated in the presence of stimulating MBP peptide and peptide analog or control peptide (SWM) or medium only. After a 24 hour incubation, the levels of TNF-α and IFN-γ in the supernatant are determined using commercially available EIA kits (Endogen, Cambridge, Mass.).
The ability of the peptide analog ligand to influence cytokine production was next measured. The Dr2b-restricted T cell clone 5F6 was incubated in the presence of 3 μM MBP peptide with either 10 μM of NBI-5788 (SEQ ID NO:7) or SWM or medium only. As a control, cells were cultured in the presence of medium alone. After 24 hours, supernatants were removed and the levels of tumor necrosis factor alpha (TNF-α) and interferon-y (IFN-γ) determined using commercially available EIA kits.

[3] = system: NBI-5788-reactive or MBP-reactive T cell lines from MS patients; experiment: Cross-reactivity of T cell lines (TCL) from MS patients, 3H-thymidine proliferation; format: cell-based, human
Method: To evaluate the degree of NBI-5788-specific reactivity induced by NBI-5788 treatment, we determined whether NBI-5788-reactive T cell lines generated from untreated or NBI-5788-treated patients cross-reacted with whole MBP or MBP peptide 83-99. T cell lines were generated from positive cultures in the frequency analysis by an additional cycle of co-culture with antigen. Specificity of positive lines was tested by culturing 2×10^4 T cells/well in triplicate with whole MBP, MBP83-99, NBI-5788 or medium alone in the presence of 10^5 APCs in a final volume of 200 μl/well. Two days later supernatants were pooled from replicate wells and frozen at −80° C. Wells were then pulsed with [^3H]-thymidine (1 μCi/well) for the final 18 hours of culture.

[4] = patient MS-1, dose 20 mg, TCL 4

MBP(83-99) (83E>a, 84N>K, 89F>L, and 91K>A) ([dA]KPVVHLFANIVTPRTP) [NBI-5788]
reduction of disease severity compared to the control group (EAE in Lewis rats; 13.2 mg/kg subcutaneously on day 9, FIG. 9): about 50%
effect on EAE disease severity versus control peptide (EAE in Lewis rats; 13.2 mg/kg subcutaneously on day 9, FIGS. 10 and 11): significantly reduced the severity and duration of the disease
inhibition of response of Dr2b T cell clones to MBP peptide ([1]; 50 μM, three different T cell lines, FIGS. 16-18): inhibited the ability of the T cell clones to respond to MBP peptide in a concentration dependent fashion
inhibition of MBP-dependent proliferation of clone 5F6 ([1]; Dr2b restricted clone 5F6, 50 μM, FIG. 19): inhibited the MBP-dependent proliferation in a concentration dependent fashion
effect on MBP-stimulated production of TNF-α and IFN-γ ([2]; 10 μM peptide with 3 μM MBP peptide, to approximately levels with medium only): dramatically inhibited the production of both pro-inflammatory cytokines
stimulation of cytokine production over background by the analog itself ([2]; even at concentrations of 50 μM (data not shown)): None
whole MBP-reactive TCL from treated patients cross-reacting with NBI-5788 ([3]; 1 of 35 TCL): 2.9%
NBI-5788-reactive TCL from treated patients cross-reacting with whole MBP ([3]; 1 of 43 TCL): 2.3%
NBI-5788-reactive TCL from treated patients cross-reacting with both MBP83-99 and whole MBP ([3]; 2 of 43 TCL): 4.7%
whole MBP-reactive TCL from treated patients cross-reacting with MBP83-99 and NBI-5788 ([3]; 3 of 35 TCL): 8.6%
whole MBP-reactive TCL from treated patients cross-reacting with MBP-83-99 ([3]; 6 of 35 TCL): 17.1%
NBI-5788-reactive TCL from treated patients cross-reacting with MBP83-99 ([3]; 12 of 43 TCL): 27.9%
proliferative response of MBP-reactive TCL to antigen ([3]; patient MS-1, dose 20 mg, TCL 2): 6,090 ± 102
proliferative response of MBP-reactive TCL to antigen [3, 4]: 4,164 ± 123
proliferative response of NBI-5788-reactive TCL to antigen [3, 4]: 4,112 ± 349
proliferative response of MBP-reactive TCL to antigen ([3]; patient MS-1, dose 20 mg, TCL 5): 3,115 ± 56
proliferative response of MBP-reactive TCL to antigen ([3]; patient MS-1, dose 20 mg, TCL 10): 2,794 ± 152
proliferative response of MBP-reactive TCL to antigen ([3]; patient MS-1, dose 20 mg, TCL 14): 15,780 ± 214
proliferative response of MBP-reactive TCL to antigen ([3]; patient MS-1, dose 20 mg, TCL 26): 2,559 ± 74
proliferative response of NBI-5788-reactive TCL to antigen ([3]; patient MS-1, dose 20 mg, TCL 36): 18,259 ± 2011
proliferative response of MBP-reactive TCL to antigen ([3]; patient MS-1, dose 20 mg, TCL 45): 2,559 ± 637
proliferative response of MBP-reactive TCL to antigen ([3]; patient MS-2, dose 20 mg, TCL 14): 2,566 ± 421
proliferative response of MBP-reactive TCL to antigen ([3]; patient MS-3, Pretreat., TCL 9): 6,468 ± 586
proliferative response of NBI-5788-reactive TCL to antigen ([3]; patient MS-3, dose 20 mg, TCL 2): 19,315 ± 1,310
proliferative response of NBI-5788-reactive TCL to antigen ([3]; patient MS-3, dose 20 mg, TCL 4): 50,630 ± 11,709
proliferative response of NBI-5788-reactive TCL to antigen ([3]; patient MS-3, dose 20 mg, TCL 18): 10,308 ± 1,283
proliferative response of NBI-5788-reactive TCL to antigen ([3]; patient MS-3, dose 20 mg, TCL 30): 48,278 ± 1,070
proliferative response of MBP-reactive TCL to antigen ([3]; patient MS-4, dose 20 mg, TCL 7): 7,492 ± 716
proliferative response of NBI-5788-reactive TCL to antigen ([3]; patient MS-4, dose 20 mg, TCL 18): 26,017 ± 802
proliferative response of NBI-5788-reactive TCL to antigen ([3]; patient MS-5, dose 20 mg, TCL 15): 32,597 ± 1,856
proliferative response of NBI-5788-reactive TCL to antigen ([3]; patient MS-5, dose 20 mg, TCL 39): 24,326 ± 3,724
proliferative response of NBI-5788-reactive TCL to antigen ([3]; patient MS-5, dose 20 mg, TCL 43): 16,726 ± 1,121
proliferative response of NBI-5788-reactive TCL to antigen ([3]; patient MS-6, dose 10 mg, TCL 22): 43,085 ± 1,376
proliferative response of NBI-5788-reactive TCL to antigen ([3]; patient MS-6, dose 10 mg, TCL 38): 24,195 ± 613
proliferative response of NBI-5788-reactive TCL to antigen ([3]; patient MS-7, dose 5 mg, TCL 12): 17,749 ± 1,784
proliferative response of NBI-5788-reactive TCL to antigen ([3]; patient MS-7, dose 5 mg, TCL 28): 3,505 ± 1,446
proliferative response of MBP-reactive TCL to antigen ([3]; patient MS-7, dose 5 mg, TCL 46): 1,298 ± 113
proliferative response of MBP-reactive TCL to antigen ([3]; patient MS-8, Placebo, TCL 26): 944 ± 259
proliferative response of MBP-reactive TCL to antigen ([3]; patient MS-8, Placebo, TCL 28): 1,437 ± 97
proliferative response of MBP-reactive TCL to antigen ([3]; patient MS-8, Placebo, TCL 38): 16,931 ± 1938
proliferative response of MBP-reactive TCL to antigen ([3]; patient MS-8, Pretreat., TCL 22): 2,636 ± 270
proliferative response of MBP-reactive TCL to antigen ([3]; patient MS-8, Pretreat., TCL 31): 936 ± 123
proliferative response of MBP-reactive TCL to antigen ([3]; patient MS-8, Pretreat., TCL 47): 3,448 ± 1,980
